# Primed or numbered codes have the meaning given here. The star is where a group is joined. Mca = COc1ccc2c(CC(=O)*)cc(=O)oc2c1; Dnp′ = not defined here
# Assays:
# [1] = target: T1, Calpain 1 (Homo sapiens, UniProt P07384); assay: Assay of specificity of autolytic-site peptide cleavage (FRET fluorescence) by commercial calpain 1; type: biochemical; conditions: calpain 1, human erythrocytes; 10 mM CaCl2; peptide 1.9 μM; 37° C.; FIG. 2
# T1 construct: Calpain 1: human erythrocytes (Calbiochem); purchased Calbiochem; host or cells: human erythrocytes
# T1 sequence (P07384 1-714): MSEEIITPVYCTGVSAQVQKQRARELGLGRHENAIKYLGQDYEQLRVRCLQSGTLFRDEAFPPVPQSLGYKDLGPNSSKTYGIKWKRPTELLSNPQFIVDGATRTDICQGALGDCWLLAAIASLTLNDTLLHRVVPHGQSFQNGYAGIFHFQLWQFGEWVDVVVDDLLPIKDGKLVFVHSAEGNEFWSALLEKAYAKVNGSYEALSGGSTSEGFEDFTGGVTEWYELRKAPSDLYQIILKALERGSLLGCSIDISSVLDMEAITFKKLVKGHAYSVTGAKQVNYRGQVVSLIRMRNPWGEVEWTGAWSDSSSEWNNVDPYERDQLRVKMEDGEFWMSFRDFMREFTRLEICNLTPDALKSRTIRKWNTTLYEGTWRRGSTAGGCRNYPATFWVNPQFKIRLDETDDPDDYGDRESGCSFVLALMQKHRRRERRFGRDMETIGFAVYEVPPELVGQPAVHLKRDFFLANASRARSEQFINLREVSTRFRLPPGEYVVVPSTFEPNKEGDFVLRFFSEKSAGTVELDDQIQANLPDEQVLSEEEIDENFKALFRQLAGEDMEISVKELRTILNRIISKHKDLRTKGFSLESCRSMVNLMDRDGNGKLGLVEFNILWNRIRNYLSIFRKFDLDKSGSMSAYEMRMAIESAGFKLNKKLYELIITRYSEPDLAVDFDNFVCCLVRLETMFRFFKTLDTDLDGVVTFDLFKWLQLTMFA
# T1 sequence (P04632 1-268 partner): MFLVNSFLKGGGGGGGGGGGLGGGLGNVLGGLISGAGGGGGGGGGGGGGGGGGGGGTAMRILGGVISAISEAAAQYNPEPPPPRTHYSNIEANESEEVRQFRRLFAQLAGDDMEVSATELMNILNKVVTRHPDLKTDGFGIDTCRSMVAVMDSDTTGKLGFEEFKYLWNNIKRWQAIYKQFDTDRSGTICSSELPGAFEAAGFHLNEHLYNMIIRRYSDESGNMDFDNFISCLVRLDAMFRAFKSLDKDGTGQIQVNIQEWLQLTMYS
# Procedure: (§1) 1/ Fluorometer: SpectraMax Gemini XS Microplate fluoro-meter (molecular Devices).
# Calpain 1: human erythrocytes (Calbiochem)
# (§2) Final volume of 200 μl; calcium (CaCl2) 10 mM final concentration; fluorescent peptides 1.9 μM final concentration.
# (§3) The reaction is carried out at 37° C., either over one hour (with in this case measurement of fluorescence every 50 seconds) or over 6 hours (measurement every 2 minutes).
# (§4) The medium is agitated between each measurement. The wavelengths used for detecting the fluorescence of the peptides are:
# (§5) Excitation wavelengths of Mca: 325 nm.
# (§6) Emission wavelengths of […]: 392 nm.
# (§7) Resuspension buffer for commercial calpains: 100 mM NaCl, 5 mM EDTA, 50 Mm TrisHCl, 5 mM β-mercaptoethanol, 40% glycerol, pH=7.8. Storage at ambient temperature. Resuspension buffer for the fluorescent peptides: the peptides are resuspended at 1 mg/ml in 100% DMSO.
# (§8) Reaction buffer: 100 mM NaCl, 50 mM HEPES, 10 mM DTT, 1 mM EDTA, 10% glycerol, 0.1% CHAPS, 100 ng/μl BSA, pH=7.4, filtration. Storage at ambient temperature.
# (§9) Before verifying whether calpain 3 can cleave the peptides corresponding to its autolytic sites, a first assay consisted in verifying that these peptides (site 1, site 2, site 3) could not be cleaved by other proteases, in particular by ubiquitous calpains (see FIG. 2).
# [2] = target: T2, Calpain 2 (Rattus norvegicus, UniProt Q07009); assay: Assay of specificity of autolytic-site peptide cleavage (FRET fluorescence) by commercial calpain 2; type: biochemical; conditions: calpain 2, rat recombinant; 10 mM CaCl2; peptide 1.9 μM; 37° C.; FIG. 2
# T2 construct: purchased Calbiochem; host or cells: E. coli
# T2 sequence (Q07009 1-700): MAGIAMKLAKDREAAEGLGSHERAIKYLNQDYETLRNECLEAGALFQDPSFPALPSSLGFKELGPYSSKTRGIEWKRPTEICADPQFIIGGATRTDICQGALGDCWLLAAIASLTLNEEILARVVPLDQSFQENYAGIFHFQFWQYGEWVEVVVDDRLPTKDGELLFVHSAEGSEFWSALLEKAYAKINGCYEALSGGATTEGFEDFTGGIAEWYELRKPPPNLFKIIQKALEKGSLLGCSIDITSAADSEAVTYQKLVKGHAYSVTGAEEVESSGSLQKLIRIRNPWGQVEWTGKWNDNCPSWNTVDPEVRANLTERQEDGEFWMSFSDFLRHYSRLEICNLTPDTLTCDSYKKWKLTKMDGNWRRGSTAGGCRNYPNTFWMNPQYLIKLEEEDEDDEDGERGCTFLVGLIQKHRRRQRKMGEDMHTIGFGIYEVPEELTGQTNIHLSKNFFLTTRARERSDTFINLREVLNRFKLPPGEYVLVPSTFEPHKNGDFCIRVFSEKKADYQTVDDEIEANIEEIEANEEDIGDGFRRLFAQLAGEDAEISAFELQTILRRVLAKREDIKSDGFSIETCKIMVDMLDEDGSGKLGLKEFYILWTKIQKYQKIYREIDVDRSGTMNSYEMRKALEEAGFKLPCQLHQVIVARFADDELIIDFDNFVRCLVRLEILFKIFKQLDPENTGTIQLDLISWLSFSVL
# T2 sequence (Q64537 87-270 partner limits assumed): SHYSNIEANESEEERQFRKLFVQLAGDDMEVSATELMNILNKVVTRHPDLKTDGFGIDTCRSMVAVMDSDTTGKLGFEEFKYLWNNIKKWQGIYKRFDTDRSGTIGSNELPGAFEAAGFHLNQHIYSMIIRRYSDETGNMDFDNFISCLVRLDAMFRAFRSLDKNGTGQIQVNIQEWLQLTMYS
# Procedure: as §1
# Calpain 2: rat, recombinant, E. coli (Calbiochem)
# as §2, §3, §4, §5, §6, §7, §8, §9
# [3] = tested on: calpain 3; assay: Cleavage of autolytic-site peptides by extracts of C2C12 cells transfected or not transfected with the plasmid encoding calpain 3; type: biochemical, murine; conditions: FIG. 3; for difference in cleavage activity between calpain 3-transfected and untransfected cells: C2C12 extracts, efficiency of transfection less than 10%; for activity of C2C12 extracts on the peptide (fluorescence): transfected or untransfected C2C12 extracts
# Procedure: as §2, §3, §5, §6, §8
# Cell Lines Used: C2C12: murine myoblasts;
# Medium used for C2C12: DMEM+10% FCS
# The desired cells are trypsinized and then the wells are seeded in such a way that the cells are at 50-80% confluency the following day.
# Allow the cells to grow at 37° C./7% CO2.
# (§10) Principle: The animal cells, which may or may not be transfected, are lysed for the purpose of preparing protein extracts the properties of which may be studied.
# (§11) The culture medium is removed from the wells and the wells are washed with PBS (phosphate buffered Dulbecco solution (without calcium, or magnesium, or sodium bicarbonate)—Gibco BRL).
# (§12) The cells are harvested and centrifuged at 500 g for 10 min at 4° C.
# (§13) The supernatant is removed and the cells are taken up in the lysis buffer (50 mM HEPES, 1 mM DTT, 0.1 mM EDTA, 0.1% CHAPS, pH=7.4) in a proportion of 700 μl of lysis buffer per well.
# (§14) The buffer is allowed to act at 4° C. for 5 minutes. Centrifugation is carried out at 10 000 g/10 minutes/4° C.
# (§15) The supernatant is recovered and stored at −20° C.
# It is known that calpain 3 has greater stability in muscle cells due to the presence of titin. For the purpose of proving that calpain 3 could cleave its own autolytic sites, it was therefore overexpressed in C2C12 cells by transfecting these cells with a plasmid encoding calpain 3. A control transfection with pECFP was carried out at the same time as the transfection with the plasmid encoding calpain 3. The efficiency of transfection on the C2C12s is less than 10%. The proteins were then extracted and their activity was assayed on the autolytic sites (FIG. 3).
# [4] = tested on: calpain 3; assay: Cleavage of autolytic-site peptides by extracts of normal (+/+) or calpain 3-deficient (−/−) mouse myoblasts; type: biochemical; conditions: myoblast extracts; for cleavage activity on the peptide / difference in cleavage activity between +/+ and −/− cells: reaction over 1 h, FIG. 4; for cleavage activity, +/+ versus −/− cell extracts: reaction over 6 h, FIG. 6
# Procedure: as §2, §3, §5, §6, §8, §10, §11, §12, §13, §14, §15
# The system is then assayed on extracts of cell cultures deficient or not deficient in calpain 3. To do this, mice deficient for the calpain 3 gene, for which myogenic cell cultures have been derived [Richard, 2000], are used. Extracts of cultures of calpain 3-deficient muscle cells (−/−cells) can therefore be compared with extracts of cultures of normal muscle cells (+/+cells). Initially, the assay was carried out on undifferentiated cells (myoblasts) (FIG. 4).
# [5] = tested on: calpain 3; assay: Cleavage of autolytic-site peptides by extracts of normal (+/+) or calpain 3-deficient (−/−) mouse quadriceps; type: biochemical; conditions: quadriceps lysates, over 6 hours; FIG. 7
# Procedure: as §2, §3, §5, §6, §8
# Principle: The muscles are ground for the purpose of preparing protein extracts the properties of which may then be studied.
# Material: Quadriceps of normal mice and of calpain 3-deficient mice.
# The muscles are ground in liquid nitrogen. The ground material is resuspended in the lysis buffer (cf. composition in the cell lysis protocol above) in a proportion of 19 μl of lysis buffer per milligram of ground tissue.
# The buffer is allowed to act for 10 minutes in ice. Centrifugation is carried out at 10 000 g for 10 minutes at 4° C.
# as §15
# Activity assays were also carried out on lysates of muscles from mice deficient or not deficient in calpain 3. The assays were carried out using quadriceps lysates (FIG. 7).
# [6] = tested on: calpain 3; assay: Cleavage of autolytic site 3 peptide by extracts of normal (+/+) or calpain 3-deficient (−/−) mouse myotubes; type: biochemical; conditions: myotube extracts; FIG. 5
# Procedure: as §2, §3, §5, §6, §8, §10, §11, §12, §13, §14, §15
# Specifically, calpain 3 is theoretically expressed more in myotubes than in myoblasts.
Substance,cleavage activity on the peptide (fluorescence over time vs peptide without enzyme) [1],cleavage activity on the peptide (fluorescence over time vs peptide without enzyme) [2],difference in cleavage activity between calpain 3-transfected and untransfected cells [3],activity of C2C12 extracts on the peptide (fluorescence) [3],cleavage activity on the peptide [4],"cleavage activity, +/+ versus −/− cell extracts [4]","activity of cleavage, +/+ versus −/− tissue extracts [5]",difference in cleavage activity between +/+ and −/− cells [4],"cleavage activity, −/− versus +/+ cell extracts [6]"
Mca-NMDNISLL-Dnp [site 2],no cleavage activity,no cleavage activity,no difference can be detected,slight increase in fluorescence,No cleavage activity could be detected,greater in extracts of +/+cells,by the +/+ tissue extracts is greater than that of the −/−tissue extracts,–,–
"Mca-NMTYGTS-Dnp (Mca-NMTYGTS-{Dnp′}) [site 1, fluorescent FRET peptide of calpain 3 autolytic site 1, Mca donor and Dnp acceptor]",no cleavage activity,no cleavage activity,no difference can be detected,slight increase in fluorescence,low cleavage activity,greater in extracts of +/+cells,by the +/+ tissue extracts is greater than that of the −/−tissue extracts,very small,–
"Mca-PVQYETR-Dnp (Mca-PVQYETR-{Dnp′}) [site 3, fluorescent FRET peptide of calpain 3 autolytic site 3, Mca donor and Dnp acceptor]",no cleavage activity,no cleavage activity,greater in the transfected cells,–,Cleavage activity is detected,greater in extracts of −/−cells than in extracts of +/+cells,by the −/−tissue extracts is greater than that of the +/+tissue extracts,no difference in activity is visible,in the extracts of −/−cells is greater than in the extracts of +/+cells

# From patent US20040180395A1, “Method for detecting calpain3 activity in a biological sample and peptides for implementing said method” (priority 2001, published 2004)
